Results reported in the supplement of paper PMC10307832.

Columns and labels:
Test in all cases: relative viability (nuclei count vs DMSO), 5 days (fraction); higher = more cells survive
AZD5582 + Dasatinib = compound: C[C@@H](C(=O)N[C@@H](C1CCCCC1)C(=O)N2CCC[C@H]2C(=O)N[C@@H]3[C@@H](CC4=CC=CC=C34)OCC#CC#CCO[C@@H]5CC6=CC=CC=C6[C@@H]5NC(=O)[C@@H]7CCCN7C(=O)[C@H](C8CCCCC8)NC(=O)[C@H](C)NC)NC [AZD5582] + Cc1nc(Nc2ncc(C(=O)Nc3c(C)cccc3Cl)s2)cc(N2CCN(CCO)CC2)n1 [Dasatinib] (partner 0.075 µM)
How it was run: (§1)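 Relative viability was taken as the ratio of nuclei in treated wells to nuclei in vehicle wells. Lung cancer cell lines in 1536-well plates received compounds by pin tool one day after seeding, either one drug alone or a fixed anchor-drug dose plus five library-drug doses (not always all listed) in √10 steps. Nuclei were counted on 4× images after 5 days of treatment, and values are medians of duplicate plates.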

[1] = compound: Cn1nnc2c(C(N)=O)ncn2c1=O [Temozolomide] + CC(=O)Nc1cccc(-n2c(=O)n(C3CC3)c(=O)c3c(Nc4ccc(I)cc4F)n(C)c(=O)c(C)c32)c1 [Trametinib] (partner 0.02 µM)
How it was run: as §1

Temozolomide + Foretinib = compound: Cn1nnc2c(C(N)=O)ncn2c1=O [Temozolomide] + COc1cc2c(Oc3ccc(NC(=O)C4(C(=O)Nc5ccc(F)cc5)CC4)cc3F)ccnc2cc1OCCCN1CCOCC1 [Foretinib] (partner 0.25 µM)
How it was run: as §1

[2] = compound: Cn1nnc2c(C(N)=O)ncn2c1=O [Temozolomide] + CS(=O)(=O)N1CCN(Cc2cc3nc(-c4cccc5[nH]ncc45)nc(N4CCOCC4)c3s2)CC1 [Pictilisib] (partner 1 µM)
How it was run: as §1

Cell Line	relative viability (AZD5582 + Dasatinib; first compound 0.001581 µM)	relative viability (AZD5582 + Dasatinib; first compound 0.005 µM)	relative viability (AZD5582 + Dasatinib; first compound 0.01581 µM)	relative viability (AZD5582 + Dasatinib; first compound 0.05 µM)	relative viability ([1]; first compound 0.2 µM)	relative viability ([1]; first compound 0.6325 µM)	relative viability ([1]; first compound 2 µM)	relative viability ([1]; first compound 6.325 µM)	relative viability ([1]; first compound 20 µM)	relative viability (Temozolomide + Foretinib; first compound 0.2 µM)	relative viability (Temozolomide + Foretinib; first compound 0.6325 µM)	relative viability (Temozolomide + Foretinib; first compound 2 µM)	relative viability (Temozolomide + Foretinib; first compound 6.325 µM)	relative viability (Temozolomide + Foretinib; first compound 20 µM)	relative viability ([2]; first compound 0.2 µM)	relative viability ([2]; first compound 0.6325 µM)	relative viability ([2]; first compound 2 µM)	relative viability ([2]; first compound 6.325 µM)	relative viability ([2]; first compound 20 µM)
201T	0.557	0.577	0.541	0.589	0.707	0.72	0.725	0.681	0.714	0.901	1.2	1.14	1.08	1.03	0.683	0.731	0.735	0.69	0.641
A549	–	–	–	–	–	–	–	–	–	1.02	0.996	0.998	1.01	0.769	0.61	0.471	0.525	0.507	0.504
A-427	0.593	0.638	0.683	0.384	0.807	0.711	0.69	0.502	0.458	0.992	0.981	1.03	0.66	0.486	0.816	0.733	0.797	0.417	0.329
ABC-1	0.344	0.611	–	0.632	–	–	–	–	–	1.06	0.96	1.21	1.07	1.11	0.726	0.8	0.881	0.609	0.53
BEN	0.329	0.344	0.289	0.304	0.813	1.12	1.1	1	0.853	0.734	0.651	0.803	0.517	0.428	0.467	0.629	0.657	0.552	0.484
CAL-12T	0.261	0.333	0.363	0.349	0.285	0.369	0.337	0.418	0.268	1.13	1.09	1.15	1.05	1.13	–	0.434	0.425	0.334	0.391
COR-L23	0.432	0.647	0.477	0.53	0.624	0.614	0.641	0.534	0.545	1.12	1.06	1.01	0.961	0.911	1.01	0.771	0.961	0.829	0.715
COR-L 105	0.374	0.455	0.278	0.258	0.425	0.42	0.395	0.431	0.402	1.17	1.29	1.18	0.51	1.11	0.408	0.366	0.433	0.39	0.273
Calu-6	–	–	–	–	–	–	–	–	–	0.886	0.843	0.941	0.811	0.904	1.21	0.939	0.883	0.867	0.974
ChaGo-K-1	0.579	0.669	0.596	0.488	0.959	0.87	0.967	0.9	0.887	0.993	0.886	0.992	0.98	0.975	0.784	0.904	1.02	0.635	0.581
EBC-1	–	–	–	–	–	–	–	–	–	0.11	0.1	0.0982	0.111	0.117	0.493	0.358	0.388	0.387	0.416
EKVX	0.502	0.615	–	0.627	–	0.318	0.286	0.338	0.247	0.485	0.799	0.748	0.722	0.356	0.23	0.38	0.391	0.379	0.273
EMC-BAC-2	0.332	0.327	0.31	0.241	0.906	0.891	0.916	0.891	0.85	0.947	1.07	1.02	0.998	0.973	0.535	0.596	0.587	0.497	0.495
EPLC-272H	0.0652	–	0.305	0.0573	0.241	0.279	0.338	0.324	0.277	0.537	0.697	0.628	0.712	0.497	0.356	0.35	0.334	0.298	0.326
H3255	0.329	0.404	0.294	0.283	–	0.62	0.656	0.63	0.214	–	0.845	1.03	0.507	0.201	–	0.539	0.422	0.38	0.0897
HARA	0.26	0.299	0.294	0.124	0.717	0.601	0.886	0.89	0.441	0.8	0.991	1.05	0.671	0.641	0.376	0.484	0.603	0.438	0.256
HCC-15	0.53	0.617	0.605	0.624	0.38	0.392	0.417	0.318	0.385	1.15	1.04	1.06	0.969	1.1	0.818	0.82	0.737	0.693	0.786
HCC-44	–	–	–	–	1.06	1.16	1.08	1.05	0.956	–	–	–	–	–	0.599	0.611	0.69	0.566	0.534
HCC-78	0.489	0.392	0.375	0.374	0.602	0.793	0.646	–	0.736	0.487	0.547	0.616	0.551	0.552	0.26	0.221	0.211	0.21	0.193
